{
  "source": "the supplement of paper PMC8967900",
  "data": [
    {"tested_on": "COG-LL-402h", "experiment": "selective drug sensitivity score (sDSS, relative to normal bone marrow) (sDSS (score)); higher = more potent and effective on the cell line relative to normal bone marrow cells", "settings": "72 h", "values": [
      {"smiles": "C/C=C1\\NC(=O)[C@H]2CSSCC/C=C/[C@H](CC(=O)N[C@H](C(C)C)C(=O)N2)OC(=O)[C@H](C(C)C)NC1=O", "note": "[Romidepsin] (top concentration 1000 nM)", "selective drug sensitivity score": 8.76},
      {"smiles": "CN(C)CCOc1ccc(/C(=C(/CCCl)c2ccccc2)c2ccccc2)cc1", "note": "[Toremifene] (top concentration 10000 nM)", "selective drug sensitivity score": -2.72},
      {"smiles": "CCCCc1nc2cc(/C=C/C(=O)NO)ccc2n1CCN(CC)CC", "note": "[Pracinostat] (top concentration 10000 nM)", "selective drug sensitivity score": 13},
      {"smiles": "Cn1ncc(Cl)c1-c1cc(C(=O)N[C@H](CN)Cc2cccc(F)c2)sc1Cl", "note": "[Afuresertib] (top concentration 1000 nM)", "selective drug sensitivity score": 4.56},
      {"smiles": "Cc1cc(-c2nc(-c3ccc(OC(F)(F)F)cc3)no2)nn1Cc1ccnc(N2CCN(C3CC3)CC2)c1", "note": "[BAY_87-2243] (top concentration 1000 nM)", "selective drug sensitivity score": -3.16},
      {"smiles": "CNc1nc(-c2ccc3c(N)n[nH]c3c2)cc(N2C[C@@H](C(=O)NC3CCCCC3)CC[C@H]2C)n1", "note": "(top concentration 10000 nM)", "selective drug sensitivity score": 6.36},
      {"smiles": "CN1CC[C@H](c2c(O)cc(O)c3c(=O)cc(-c4ccccc4Cl)oc23)[C@H](O)C1", "note": "[Alvocidib] (top concentration 10000 nM)", "selective drug sensitivity score": -2.1},
      {"smiles": "Cc1cc2c(C(C)C)c(O)c(O)c(C=O)c2c(O)c1-c1c(C)cc2c(C(C)C)c(O)c(O)c(C=O)c2c1O", "note": "[AT-101] (top concentration 100000 nM)", "selective drug sensitivity score": 4.18},
      {"smiles": "Cc1ccc(C(=O)Nc2cccc(C(F)(F)F)c2)cc1Nc1nc(-c2cccnc2)nc2c1cnn2C", "note": "[NVP-BHG712] (top concentration 10000 nM)", "selective drug sensitivity score": -2.32},
      {"smiles": "COC[C@H](NC(=O)c1cnc(C)s1)C(=O)N[C@@H](COC)C(=O)N[C@@H](Cc1ccccc1)C(=O)[C@@]1(C)CO1", "note": "[Oprozomib] (top concentration 2500 nM)", "selective drug sensitivity score": 2.2},
      {"smiles": "Cc1ccc(C(=O)N(CCCN)[C@@H](c2oc3cc(Cl)ccc3c(=O)c2Cc2ccccc2)C(C)C)cc1", "note": "(top concentration 100 nM)", "selective drug sensitivity score": 3.06},
      {"smiles": "CCn1c(C(=O)N(C2CC2)C2CC2)cc2c3c(ncn3C)c(Nc3cc(C)n(C)n3)nc21", "note": "(top concentration 10000 nM)", "selective drug sensitivity score": -4.36},
      {"smiles": "Nc1nc(Cl)nc2c1ncn2[C@@H]1O[C@H](CO)[C@@H](O)[C@@H]1F", "note": "[Clofarabine] (top concentration 10000 nM)", "selective drug sensitivity score": 8.1},
      {"smiles": "Cc1ccc(C(=O)Nc2ccc(Oc3cc4cnn(C)c4cc3-c3cn[nH]c3)c(F)c2)c(=O)n1-c1ccc(F)cc1", "note": "[Merestinib] (top concentration 1000 nM)", "selective drug sensitivity score": -0.62},
      {"smiles": "Nc1ncn([C@@H]2O[C@H](CO)[C@@H](O)[C@H]2O)c(=O)n1", "note": "[Azacitidine] (top concentration 10000 nM)", "selective drug sensitivity score": 1.74},
      {"smiles": "CC(C)c1cc(-c2n[nH]c(=O)n2-c2ccc3c(ccn3C)c2)c(O)cc1O", "note": "[Ganetespib] (top concentration 1000 nM)", "selective drug sensitivity score": 4.54},
      {"smiles": "C[C@]1(c2nc3c(C(N)=O)cccc3[nH]2)CCCN1", "note": "[Veliparib] (top concentration 10000 nM)", "selective drug sensitivity score": -3.48}
    ]},
    {"tested_on": "DND-41", "experiment": "selective drug sensitivity score (sDSS, relative to normal bone marrow) (sDSS (score)); higher = more potent and effective on the cell line relative to normal bone marrow cells", "settings": "72 h", "values": [
      {"smiles": "C/C=C1\\NC(=O)[C@H]2CSSCC/C=C/[C@H](CC(=O)N[C@H](C(C)C)C(=O)N2)OC(=O)[C@H](C(C)C)NC1=O", "note": "[Romidepsin] (top concentration 1000 nM)", "selective drug sensitivity score": 4.76},
      {"smiles": "CN(C)CCOc1ccc(/C(=C(/CCCl)c2ccccc2)c2ccccc2)cc1", "note": "[Toremifene] (top concentration 10000 nM)", "selective drug sensitivity score": 6.78},
      {"smiles": "CCCCc1nc2cc(/C=C/C(=O)NO)ccc2n1CCN(CC)CC", "note": "[Pracinostat] (top concentration 10000 nM)", "selective drug sensitivity score": 3.48},
      {"smiles": "Cn1ncc(Cl)c1-c1cc(C(=O)N[C@H](CN)Cc2cccc(F)c2)sc1Cl", "note": "[Afuresertib] (top concentration 1000 nM)", "selective drug sensitivity score": -2.34},
      {"smiles": "Cc1cc(-c2nc(-c3ccc(OC(F)(F)F)cc3)no2)nn1Cc1ccnc(N2CCN(C3CC3)CC2)c1", "note": "[BAY_87-2243] (top concentration 1000 nM)", "selective drug sensitivity score": 6.84},
      {"smiles": "CNc1nc(-c2ccc3c(N)n[nH]c3c2)cc(N2C[C@@H](C(=O)NC3CCCCC3)CC[C@H]2C)n1", "note": "(top concentration 10000 nM)", "selective drug sensitivity score": 1.96},
      {"smiles": "CN1CC[C@H](c2c(O)cc(O)c3c(=O)cc(-c4ccccc4Cl)oc23)[C@H](O)C1", "note": "[Alvocidib] (top concentration 10000 nM)", "selective drug sensitivity score": -4.1},
      {"smiles": "Cc1cc2c(C(C)C)c(O)c(O)c(C=O)c2c(O)c1-c1c(C)cc2c(C(C)C)c(O)c(O)c(C=O)c2c1O", "note": "[AT-101] (top concentration 100000 nM)", "selective drug sensitivity score": 4.68},
      {"smiles": "Cc1ccc(C(=O)Nc2cccc(C(F)(F)F)c2)cc1Nc1nc(-c2cccnc2)nc2c1cnn2C", "note": "[NVP-BHG712] (top concentration 10000 nM)", "selective drug sensitivity score": 5.38},
      {"smiles": "COC[C@H](NC(=O)c1cnc(C)s1)C(=O)N[C@@H](COC)C(=O)N[C@@H](Cc1ccccc1)C(=O)[C@@]1(C)CO1", "note": "[Oprozomib] (top concentration 2500 nM)", "selective drug sensitivity score": 11.1},
      {"smiles": "Cc1ccc(C(=O)N(CCCN)[C@@H](c2oc3cc(Cl)ccc3c(=O)c2Cc2ccccc2)C(C)C)cc1", "note": "(top concentration 100 nM)", "selective drug sensitivity score": -0.64},
      {"smiles": "CCn1c(C(=O)N(C2CC2)C2CC2)cc2c3c(ncn3C)c(Nc3cc(C)n(C)n3)nc21", "note": "(top concentration 10000 nM)", "selective drug sensitivity score": -3.86},
      {"smiles": "Nc1nc(Cl)nc2c1ncn2[C@@H]1O[C@H](CO)[C@@H](O)[C@@H]1F", "note": "[Clofarabine] (top concentration 10000 nM)", "selective drug sensitivity score": 1.4},
      {"smiles": "Cc1ccc(C(=O)Nc2ccc(Oc3cc4cnn(C)c4cc3-c3cn[nH]c3)c(F)c2)c(=O)n1-c1ccc(F)cc1", "note": "[Merestinib] (top concentration 1000 nM)", "selective drug sensitivity score": -0.62},
      {"smiles": "Nc1ncn([C@@H]2O[C@H](CO)[C@@H](O)[C@H]2O)c(=O)n1", "note": "[Azacitidine] (top concentration 10000 nM)", "selective drug sensitivity score": 2.14},
      {"smiles": "CC(C)c1cc(-c2n[nH]c(=O)n2-c2ccc3c(ccn3C)c2)c(O)cc1O", "note": "[Ganetespib] (top concentration 1000 nM)", "selective drug sensitivity score": 2.94},
      {"smiles": "C[C@]1(c2nc3c(C(N)=O)cccc3[nH]2)CCCN1", "note": "[Veliparib] (top concentration 10000 nM)", "selective drug sensitivity score": -4.18}
    ]},
    {"tested_on": "HAL-01", "experiment": "selective drug sensitivity score (sDSS, relative to normal bone marrow) (sDSS (score)); higher = more potent and effective on the cell line relative to normal bone marrow cells", "settings": "72 h", "values": [
      {"smiles": "C/C=C1\\NC(=O)[C@H]2CSSCC/C=C/[C@H](CC(=O)N[C@H](C(C)C)C(=O)N2)OC(=O)[C@H](C(C)C)NC1=O", "note": "[Romidepsin] (top concentration 1000 nM)", "selective drug sensitivity score": -17.5},
      {"smiles": "CN(C)CCOc1ccc(/C(=C(/CCCl)c2ccccc2)c2ccccc2)cc1", "note": "[Toremifene] (top concentration 10000 nM)", "selective drug sensitivity score": 3.18},
      {"smiles": "CCCCc1nc2cc(/C=C/C(=O)NO)ccc2n1CCN(CC)CC", "note": "[Pracinostat] (top concentration 10000 nM)", "selective drug sensitivity score": 1.88},
      {"smiles": "Cn1ncc(Cl)c1-c1cc(C(=O)N[C@H](CN)Cc2cccc(F)c2)sc1Cl", "note": "[Afuresertib] (top concentration 1000 nM)", "selective drug sensitivity score": 3.96},
      {"smiles": "Cc1cc(-c2nc(-c3ccc(OC(F)(F)F)cc3)no2)nn1Cc1ccnc(N2CCN(C3CC3)CC2)c1", "note": "[BAY_87-2243] (top concentration 1000 nM)", "selective drug sensitivity score": -0.66},
      {"smiles": "CNc1nc(-c2ccc3c(N)n[nH]c3c2)cc(N2C[C@@H](C(=O)NC3CCCCC3)CC[C@H]2C)n1", "note": "(top concentration 10000 nM)", "selective drug sensitivity score": -0.14},
      {"smiles": "CN1CC[C@H](c2c(O)cc(O)c3c(=O)cc(-c4ccccc4Cl)oc23)[C@H](O)C1", "note": "[Alvocidib] (top concentration 10000 nM)", "selective drug sensitivity score": -3.5},
      {"smiles": "Cc1cc2c(C(C)C)c(O)c(O)c(C=O)c2c(O)c1-c1c(C)cc2c(C(C)C)c(O)c(O)c(C=O)c2c1O", "note": "[AT-101] (top concentration 100000 nM)", "selective drug sensitivity score": 0.58}
    ]}
  ]
}
